Experimental data reported in patent publication US4110472A, “Derivatives of 1-(disubstituted phenoxy)-3-amino-2-hydroxypropanes” (Bayer Aktiengesellschaft, priority 1975, dated 1978).
Structures can show the parent of a compound that is named as a salt.

Experiments:
[1] = system: 7-minute complete cerebral ischaemia; assay: Restricted circulation and mortality after a transient total cerebral ischaemia (experimental apoplexy); format: in vivo
From the text: Restricted circulation and mortality after a transient total cerebral ischaemia ("experimental apoplexy")
A 7-minute complete cerebral ischaemia is caused in curarized cats by inflating a collar placed around the neck.

cerebral blood flow [2] = assay: Increase in the cerebral blood flow in dogs (133 xenon clearance); format: in vivo; details: FIGS. 6A, 6B and 7
From the text: (§1) Increase in the cerebral blood flow in cats and dogs Cats (1.8-3.0 kg) and dogs (18-25 kg) of both sexes are rendered analgetic with fentanyl and curarized.

[3] = system: amnesia induced by electric shock; assay: Protective action against amnesia induced by electric shock in male mice; format: in vivo; details: vs propanolol and vincamine; 3 administrations at 24 h intervals, FIGS. 1-5
From the text: 1. Protective action against amnesia in male mice A modification of the method of Taber and Banuazizi (Psychopharmacol. 9, 382-91, 1966) was employed. Mice are taught to remain seated in a small compartment of a test cage and not to move into the larger compartment in which an electric shock to the foot were previously received. If a convulsive electric shock is applied to a mouse after it has been so taught, it develops amnesia and forgets the previous experience (the shock to its foot in the larger compartment),and moves from the smaller compartment into the larger compartment. By pre-treating the animals with a test substance, it is possible to determine whether these substances have any protective action against the amnesia produced. Each test substance is administered to the particular animal 3 times at intervals of 24 hours, the last administration being 1 hour before the first test. Two groups are formed for each test; a control group with amnesia and a pre-treated group. For each test group, the average value of the times which have elapsed befoe the barrier is crossed on the 2nd day is calculated. This time is taken as a criterion for the learning capacity.

in vivo = details: mouse
cerebral blood flow [4] = assay: Increase in the cerebral blood flow in cats (133 xenon clearance); details: for increase the cerebral blood flow (in words) / activity on cerebral blood flow (in words): cats; for increase the cerebral blood flow (in words): Tables 1 and 2, FIGS. 6A, 6B and 7; for action on cerebral blood flow at lower doses vs comparison substances: intravenous administration; for activity on cerebral blood flow (in words): peroral
From the text: as §1

Compound	restriction in the cerebral blood flow after a 7-minute cerebral ischaemia ([1]; cats, pretreated 50 mg/kg perorally)	mortality after 7-minute cerebral ischaemia (cats died) ([1]; pretreated 50 mg/kg perorally, 94% of controls died within 48 hours, significant)	increase the cerebral blood flow (in words) (cerebral blood flow [2])	protective action against amnesia induced by electric shock [3]	LD50 (in vivo; iv)	LD50 (in vivo; po)	increase the cerebral blood flow (in words) (cerebral blood flow [4])	action on cerebral blood flow at lower doses vs comparison substances (cerebral blood flow [4])	activity on cerebral blood flow (in words) (cerebral blood flow [4]; at 50 and 25 mg/kg)	LD50 (in vivo; iv, mice, intravenously)	LD50 (in vivo; po, mice, orally)	activity on cerebral blood flow (in words) (cerebral blood flow [4]; 50 mg/kg)	activity in the experimental apoplexy test (in words) ([1]; cats)
C/C=C/c1ccc(OCC)c(OCC(O)CNC(c2ccccc2)c2ccccc2)c1 (stereo not drawn) [Compound A, 1-(2-ethoxy-5-trans-propenylphenoxy)-2-hydroxy-3-diphenylmethylaminopropane hydrochloride]	no restriction	33%	significantly increase	considerably more effective	80 mg/kg	> 2000 mg/kg	significantly increase	stronger than that of the comparison substances	distinct action	–	–	–	–
C=CCc1ccc(OCC(O)CNC(c2ccccc2)c2ccccc2)c(OC)c1.Cl (centres unmarked) [Compound B, 1-(2-methoxy-4-allylphenoxy)-2-hydroxy-3-diphenylmethylaminopropane hydrochloride]	–	–	significantly increase	considerably more effective	–	–	significantly increase	stronger than that of the comparison substances	distinct action	43 mg/kg	450 mg/kg	–	–
C/C=C/c1ccc(OCC)c(OCC(O)CNC2c3ccccc3-c3ccccc32)c1 (stereo not drawn) [Compound C, 1-(2-ethoxy-5-trans-propenylphenoxy)-2-hydroxy-3-(9-fluorenylamino)-propane]	–	–	significantly increase	–	–	–	significantly increase	stronger than that of the comparison substances	distinct action	85 mg/kg	> 2000 mg/kg	–	–
OC(CNC(c1ccccc1)c1ccccc1)COc1ccc(Cl)c(Cl)c1 (centres unmarked) [Compound D, 1-(3,4-dichlorophenoxy)-2-hydroxy-3-diphenylmethylaminopropane]	–	–	significantly increase	considerably more effective	–	–	significantly increase	stronger than that of the comparison substances	distinct action	76 mg/kg	> 2000 mg/kg	–	–
CN(C)CCCOC1(Cc2ccccc2)CCCCCC1 [bencyclan, reference compound]	–	–	–	–	–	–	–	–	–	33 mg/kg	> 2000 mg/kg	inactive	–
CC[C@]12CCCN3CCc4c(n(c5ccccc45)[C@@](O)(C(=O)OC)C1)[C@@H]32 [vincamine, reference compound]	–	–	–	–	–	–	–	–	–	95 mg/kg	460 mg/kg	–	inactive
